Test results: US10745393B2, “Small molecular probes, processes and use thereof” (JAWAHARLAL NEHRU CENTRE FOR ADVANCED SCIENTIFIC RESEARCH, priority 2014, dated 2020)
Like-named read-outs stand apart in the source and are kept apart here. Marks after values point to notes of the source that are not given here.

Key:
DNA [1] = experiment: Comparison of DNA dyes: sequence selectivity and fluorescence of free/DNA bound dye; format: binding
(GC)10 = experiment: Fluorescence response / quantum yield of probes with dsDNA (GC)10; format: binding; conditions: for ΦF with (GC)10: Tris-HCl buffer (100 mM, pH 7.4); for fluorescence change in presence of (GC)10: probe 10 μM
[2] = Absorption, emission and quantum yield of probes in Tris-HCl buffer without DNA; format: physicochemical; conditions: for ΦF in Buffer: Tris-HCl buffer (100 mM, pH 7.4), absence of DNA; for emission (fluorescence) maxima / absorption maxima: Tris-HCl buffer, no DNA; for emission (fluorescence) maxima: very weak fluorescence; for absorption maxima: probe 10 μM
(AT)20 = experiment: Fluorescence response / quantum yield of probes with dsDNA (AT)20; format: binding; conditions: for ΦF with (AT)20: Tris-HCl buffer (100 mM, pH 7.4)
(D1)mix = experiment: Fluorescence response / quantum yield of probes with dsDNA (D1)mix; format: binding; conditions: Tris-HCl buffer (100 mM, pH 7.4)
DNA [3] = conditions: cited from earlier work; for Fluorescence qauntum yield (ΦF) DNA bound dye: Table 3, superscript a, commercial dyes
cells [4] = conditions: Table 3, commercial dyes; cited from earlier work
cells [5] = conditions: Table 3, commercial dyes; cited from earlier work; remark: listed apart in the source
HEK293 cells = experiment: DNase I and RNase digestion studies; format: cell-based; conditions: 2 hours
Description: DNase I is known to degrade nuclear DNA while RNase degrades RNA in the cytoplasm by catalyzing phosphodiester bonds cleavage. HEK293 cells are fixed with chilled methanol for about 1 minute at room temperature and permeabilized with 0.1% Triton X-100 in PBS for about 2×5 minutes. After rinsing with PBS twice, for one set of experiments, cells are treated with probe TC (5 μM) for about 15 min at room temperature in three adjacent wells. A total of about 200 μL PBS (as control experiment), about 100 μg/mL DNase I (Sigma), or about 30 μg/ml DNase-Free RNase (GE) is added into the three adjacent wells and incubated at about 37° C. for about 2 hours. For another set of experiments, instead of treating with probe TC, cells are only treated with about 200 μL PBS (as control experiment), about 100 μg/ml DNase I (Sigma), or about 30 μg/mL DNase-Free RNase (GE) by adding into the three adjacent wells and incubating at about 37° C. for about 2 hours. […] After two more washes in PBS with 0.1% Triton X-100, the cover slips are washed in PBS, rinsed in ddH2O and briefly dipped in 100% ethanol. After a quick dry, cover slips are mounted with 70% glycerol. Images are captured using a Carl Zeiss Laser Scanning Microscope (LSM510 META) using an equal exposure time for control, DNase I, and RNase experiments. Experiments are done in duplicate.

(AT)10 = experiment: Absorption / fluorescence response of probes with dsDNA (AT)10; format: binding; conditions: for fluorescence enhancement in presence of (AT)10: probe 10 μM, DNA 0 to 12 μM
[6] = system: ssDNA oligonucleotides (dA10, dT10, dG10 and dC10); experiment: Fluorescence emission in presence of ssDNA oligonucleotides; format: binding; conditions: probe 10 μM, Tris-HCl buffer
Aβ42 aggregates = Aβ42 aggregates (Homo sapiens, UniProt P05067); experiment: Absorption / fluorescence response with Aβ42 fibrillar aggregates; format: binding
[7] = Absorption, emission and quantum yield of probes without Aβ42 aggregates; format: physicochemical
[8] = system: Aβ plaques in CSF samples; experiment: Detection of amyloid plaques in CSF samples by fluorescence; conditions: ThT 20 μM
Description: In the present experiment, Amyloid plaques in the CSF sample are detected as it is a hallmark of AD using ThT and QC. […] QC (10 μM) is used to detect Aβ plaques in the same set of CSF samples, which show the same trend as Thioflavin assay and stains CSF3, CSF5, CSF6 and CSF12 samples (FIG. 57 and table 6).

[9] = biological target: ThT/Aβ42 aggregate complex (Homo sapiens, UniProt P05067); experiment: ThT displacement / FRET assay; format: binding; conditions: excess ThT 50 μM; TC 1 μM, Aβ42 50 μM
[10] = fluorescence studies with dsDNAs

Sequence of Aβ42 aggregates (P05067 672-713 limits assumed): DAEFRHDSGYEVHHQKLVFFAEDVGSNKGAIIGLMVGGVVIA
Sequence of ThT/Aβ42 aggregate complex (P05067 672-713 limits assumed, one chain of several): as the sequence (P05067 672-713 limits assumed) above

Question: With CCN(CC)c1ccc2cc(/C=C/c3cc[n+](C)c4ccccc34)c(=O)oc2c1 [CL, coumarin lepidine] as the compound, how does the “preferential binding affinity, AT-sites versus GC-sites” value (DNA [1]; [10]) read?
Answer: The value was “towards AT-sites than GC-sites”.

Question: What about the “ΦF with (GC)10” value ((GC)10) of the same compound?
Answer: The value was 0.007.

Question: What about the “ΦF in Buffer” value [2] of the same compound?
Answer: Its value is 0.003.

Question: What about the “emission (fluorescence) maxima” value [2] of the same compound?
Answer: Its value is 689 nm.

Question: What about the absorption maxima [2] of the same compound?
Answer: Its absorption maxima is 519 nm.

Question: And the “ΦF with (AT)20” value ((AT)20)?
Answer: The value was 0.102.

Question: What about the “ΦF with (D1)mix” value ((D1)mix) of the same compound?
Answer: Its value is 0.052.

Question: For N=C(N)c1ccc(-c2cc3ccc(C(=N)N)cc3[nH]2)cc1 [DAPI, 4′,6-Diamidino-2-phenylindole], which “Fluorescence maxima DNA bound dye” value (DNA [3]; Table 3, commercial dyes) is on record?
Answer: Its value is 450 nm.

Question: And the “Fluorescence maxima free dye” value (DNA [3]; Table 3, commercial dyes)?
Answer: Its value is 496 nm.

Question: And the Selectivity (DNA [3]; Table 3, commercial dyes)?
Answer: Its Selectivity is “AT rich”.

Question: And the “Fluorescence qauntum yield (ΦF) DNA bound dye” value (DNA [3])?
Answer: The value was 0.42^a.

Question: And the Toxicity (cells [4])?
Answer: Its Toxicity is “Non-toxic”.

Question: What about the Cell permeability (cells [5]) of the same compound?
Answer: The Cell permeability was “Semi-Permeable”.

Question: What does the source list for CC[n+]1c(-c2ccccc2)c2cc(N)ccc2c2ccc(N)cc21 [Ethidium bromide]?
Answer: Toxicity (cells [4]): Toxic; Cell permeability (cells [5]): Impermeable

Question: For CN1CCN(c2ccc3[nH]c(-c4ccc5[nH]c(-c6ccc(O)cc6)nc5c4)nc3c2)CC1 [Hoechst33258, Hoechst 33258], which “Fluorescence maxima DNA bound dye” value (DNA [3]) is on record?
Answer: The value was 490/450 nm.

Question: What about the “Fluorescence maxima free dye” value (DNA [3]) of the same compound?
Answer: The value was 490/450 nm.

Question: What about the Toxicity (cells [4]) of the same compound?
Answer: The Toxicity was “Non-Toxic”.

Question: What about the “fluorescence nuclear staining after DNase I digestion” value (HEK293 cells; DNase I about 100 μg/mL) of the same compound?
Answer: Its value is “almost completely diminished”.

Question: And the “fluorescence nuclear staining after RNase digestion” value (HEK293 cells; RNase about 30 μg/mL)?
Answer: The value was “does not affect the fluorescence staining”.

Question: And the Cell permeability (cells [5])?
Answer: Its Cell permeability is “Permeable”.

Question: For CC[N+](C)(CC)CCC[n+]1c(-c2ccccc2)c2cc(N)ccc2c2ccc(N)cc21.[I-].[I-] [Propidium iodide], which “Fluorescence maxima DNA bound dye” value (DNA [3]; Table 3, commercial dyes) is on record?
Answer: The value was 617 nm.

Question: What about the “Fluorescence maxima free dye” value (DNA [3]; Table 3, commercial dyes) of the same compound?
Answer: Its value is 646 nm.

Question: What about the “Fluorescence qauntum yield (ΦF) DNA bound dye” value (DNA [3]) of the same compound?
Answer: Its value is 0.13^a.

Question: What about the Toxicity (cells [4]) of the same compound?
Answer: Its Toxicity is “Toxic”.

Question: And the Cell permeability (cells [5])?
Answer: Its Cell permeability is “Impermeable”.

Question: What about the “comparative fluorescence response in presence of (AT)20” value ((AT)20; dye 10 μM, Tris-HCl buffer) of the same compound?
Answer: The value was “do not show appreciable fluorescence changes”.

Question: Which “preferential binding affinity, AT-sites versus GC-sites” value (DNA [1]; [10]) does the source give for CCN(CC)c1ccc2cc(/C=C/c3sc4ccccc4[n+]3CC)c(=O)oc2c1 [TCE, (E)-3-(2-(N-ethyl-benzo[d]thiazol-2-yl)vinyl)-7-(diethylamino)-2H-chromen-2-one] here?
Answer: The value was “towards AT-sites than GC-sites”.

Question: And the “fluorescence enhancement in presence of (AT)10” value ((AT)10)?
Answer: The value was 5 fold.

Question: What about the “fluorescence change in presence of (GC)10” value ((GC)10) of the same compound?
Answer: The value was “no appreciable change”.

Question: And the “emission behaviour in presence of ssDNA” value [6]?
Answer: The value was “do not show significant changes in the emission behaviour”.

Question: For C#CC[n+]1c(/C=C/c2cc3ccc(N(CC)CC)cc3oc2=O)sc2ccccc21 [TCP, (E)-3-(2-(N-(prop-2-ynyl)-benzo[d]thiazol-2-yl)vinyl)-7-(diethylamino)-2H-chromen-2-one], which “preferential binding affinity, AT-sites versus GC-sites” value (DNA [1]; [10]) is on record?
Answer: The value was “towards AT-sites than GC-sites”.

Question: And the “probe concentration at which fluorescence saturates” value ((AT)10; fixed concentration of DNAs ((AT)10, (D1)mix, (D2)mix), FIG. 32)?
Answer: Its value is “about 5 μM”.

Question: And the “fluorescence enhancement in presence of (AT)10” value ((AT)10)?
Answer: Its value is 6 fold.

Question: And the “fluorescence change in presence of (GC)10” value ((GC)10)?
Answer: The value was “no change”.

Question: What about the “emission behaviour in presence of ssDNA” value [6] of the same compound?
Answer: The value was “do not show significant changes in the emission behaviour”.

Question: With C[n+]1c(/C=C/c2ccc3ccc4cccc5ccc2c3c45)sc2ccccc21 [TP, thiazole pyrene] as the compound, how does the “preferential binding affinity, AT-sites versus GC-sites” value (DNA [1]) read?
Answer: The value was “towards AT-sites than GC-sites”.

Question: What about the “change in absorption and colour with Aβ42 aggregates” value (Aβ42 aggregates) of the same compound?
Answer: Its value is “fails to exhibit any detectable change in absorption”.

Question: And the “change in fluorescence in presence of Aβ42 aggregates” value (Aβ42 aggregates)?
Answer: The value was “does not show any detectable change in the fluorescence behavior”.

Question: What about the “ΦF with (GC)10” value ((GC)10) of the same compound?
Answer: Its value is 0.005.

Question: What about the “emission maximum in absence of Aβ42 aggregates” value [7] of the same compound?
Answer: Its value is 623 nm.

Question: What about the “absorption maximum in absence of Aβ42 aggregates” value ([7]; pH 7.4) of the same compound?
Answer: Its value is 460 nm.

Question: What about the “ΦF in Buffer” value [2] of the same compound?
Answer: The value was 0.002.

Question: What about the “emission (fluorescence) maxima” value [2] of the same compound?
Answer: Its value is 623 nm.

Question: And the absorption maxima [2]?
Answer: Its absorption maxima is 460 nm.

Question: What about the “ΦF with (AT)20” value ((AT)20) of the same compound?
Answer: Its value is 0.042.

Question: And the “ΦF with (D1)mix” value ((D1)mix)?
Answer: Its value is 0.026.

Question: With Cc1ccc2c(c1)sc(-c1ccc(N(C)C)cc1)[n+]2C.[Cl-] [ThT, Thioflavin T, reference compound] as the compound, how does the “Normalized fluorescence intensity (ThT)” value ([8]; sample CSF1) read?
Answer: The value was 14.35.

Question: And the “Normalized fluorescence intensity (ThT)” value ([8]; sample CSF2)?
Answer: Its value is 5.60.

Question: And the “Normalized fluorescence intensity (ThT)” value ([8]; sample CSF3)?
Answer: Its value is 18.25.

Question: What about the “Normalized fluorescence intensity (ThT)” value ([8]; sample CSF4) of the same compound?
Answer: The value was 7.45.

Question: What about the “Normalized fluorescence intensity (ThT)” value ([8]; sample CSF5) of the same compound?
Answer: The value was 40.65.

Question: What about the “Normalized fluorescence intensity (ThT)” value ([8]; sample CSF6) of the same compound?
Answer: Its value is 24.40.

Question: And the “Normalized fluorescence intensity (ThT)” value ([8]; sample CSF7)?
Answer: The value was 5.75.

Question: And the “Normalized fluorescence intensity (ThT)” value ([8]; sample CSF8)?
Answer: The value was 8.40.

Question: What about the “Normalized fluorescence intensity (ThT)” value ([8]; sample CSF9) of the same compound?
Answer: The value was 7.50.

Question: What about the “Normalized fluorescence intensity (ThT)” value ([8]; sample CSF10) of the same compound?
Answer: Its value is 3.26.

Question: And the “Normalized fluorescence intensity (ThT)” value ([8]; sample CSF11)?
Answer: Its value is 8.35.

Question: What about the “Normalized fluorescence intensity (ThT)” value ([8]; sample CSF12) of the same compound?
Answer: Its value is 37.50.

Question: And the “Normalized fluorescence intensity (ThT)” value ([8]; sample CSF13)?
Answer: The value was 4.20.

Question: What about the “Normalized fluorescence intensity (ThT)” value ([8]; sample CSF14) of the same compound?
Answer: The value was 4.52.

Question: What about the “displacement of TC from its complex with Aβ42 aggregates by excess ThT” value [9] of the same compound?
Answer: Its value is “does not displace TC”.
